Assay results reported in ChEMBL document CHEMBL5038623, “Synthesis and bioactivities of new N-terminal dipeptide mimetics with aromatic amide moiety: Broad-spectrum antibacterial activity and high antineoplastic activity” (Eur J Med Chem, 2022).
Converted amounts (≈) assume the structure as drawn.

Tests used:
[1] = Selectivity index, HC50 for hemolytic activity in rabbit RBC to MIC for antibacterial activity against methicillin-resistant Staphylococcus aureus ATCC 33591; assay type: toxicity; details: rabbit red blood cells (RBC), read-out: Selectivity Index
[2] = tested on: Escherichia coli; assay: Antibacterial activity against Escherichia coli ATCC25922 assessed as reduction in microbial growth after 24 hrs by broth dilution method; assay type: functional; details: ATCC 25922
[3] = tested on: Staphylococcus aureus; assay: Antibacterial activity against Staphylococcus aureus ATCC 6538 assessed as reduction in microbial growth after 24 hrs by broth dilution method; assay type: functional
[4] = tested on: Klebsiella pneumoniae; assay: Antibacterial activity against Klebsiella pneumoniae ATCC 700603 assessed as reduction in microbial growth after 24 hrs by broth dilution method; assay type: functional
[5] = tested on: Escherichia coli; assay: Antibacterial activity against Escherichia coli ATCC25922 assessed as zone of inhibition incubated for 12 hrs by disc diffusion method; assay type: functional, ATCC 25922
[6] = tested on: Staphylococcus aureus; assay: Antibacterial activity against Staphylococcus aureus ATCC 6538 assessed as zone of inhibition incubated for 12 hrs by disc diffusion method; assay type: functional
[7] = Hemolytic activity in rabbit RBC measured after 1 hrs by microplate reader assay; assay type: toxicity, cell-based, Oryctolagus cuniculus, Erythrocyte; details: rabbit red blood cells (RBC)
[8] = tested on: Staphylococcus aureus; assay: Antibacterial activity against methicillin-resistant Staphylococcus aureus ATCC 33591 assessed as MIC incubated for 12 hrs

SMILES | selectivity ratio [1] | MIC [2] | MIC [3] | MIC [4] | diameter of the inhibition zone (DIZ) [5] | diameter of the inhibition zone (DIZ) [6] | HC50 at 1 h [7] | MIC [8]
C#Cc1ccc(NC(=O)[C@@H](N)CC(C)C)cc1 | 158 | 10 µg/mL | 5 µg/mL | 10 µg/mL | 14.5 mm | 17.7 mm | 789 µg/mL | 10 µg/mL (≈ 43.4 µM)
CC(C)[C@H](N)C(=O)Nc1ccc(Cl)cc1 | > 16 | 156 µg/mL | 78 µg/mL | 156 µg/mL | 10 mm | 10.9 mm | > 1250 µg/mL | 78 µg/mL (≈ 344 µM)
C#Cc1ccc(NC(=O)[C@@H](N)Cc2ccccc2)cc1 | > 125 | 39 µg/mL | 10 µg/mL | 39 µg/mL | 10 mm | 13 mm | > 1250 µg/mL | 10 µg/mL (≈ 37.8 µM)
C#Cc1ccc(NC(=O)[C@@H](N)Cc2c[nH]c3ccccc23)cc1 | > 16 | 156 µg/mL | 78 µg/mL | 156 µg/mL | 6.5 mm | 10 mm | > 1250 µg/mL | 78 µg/mL (≈ 257 µM)
Cc1ccc(NC(=O)[C@@H](N)C(C)C)cc1 | – | > 1250 µg/mL | > 1250 µg/mL | > 1250 µg/mL | – | – | – | –
CC(C)[C@H](N)C(=O)Nc1ccc(Br)cc1 | > 32 | 39 µg/mL | 39 µg/mL | 78 µg/mL | 11.8 mm | 11.8 mm | > 1250 µg/mL | 78 µg/mL (≈ 288 µM)
CN[C@H](CC(C)C)C(=O)N[C@H]1C(=O)N[C@@H](CC(N)=O)C(=O)N[C@H]2C(=O)N[C@H]3C(=O)N[C@H](C(=O)N[C@H](C(=O)O)c4cc(O)cc(O)c4-c4cc3ccc4O)[C@H](O)c3ccc(c(Cl)c3)Oc3cc2cc(c3O[C@@H]2O[C@H](CO)[C@@H](O)[C@H](O)[C@H]2O[C@H]2C[C@](C)(N)[C@H](O)[C@H](C)O2)Oc2ccc(cc2Cl)[C@H]1O [VANCOMYCIN] | – | 156 µg/mL | < 0.63 µg/mL | 1250 µg/mL | – | – | – | 1.25 µg/mL (≈ 0.863 µM)
C#Cc1cccc(NC(=O)[C@H](N)C(C)C)c1 | > 125 | 39 µg/mL | 10 µg/mL | 20 µg/mL | 10 mm | 11.5 mm | > 1250 µg/mL | 20 µg/mL (≈ 92.5 µM)
C#Cc1cccc(NC(=O)[C@@H](N)C(C)C)c1 | 83.6 | 10 µg/mL | 10 µg/mL | 20 µg/mL | 15.4 mm | 15.7 mm | 836 µg/mL | 20 µg/mL (≈ 92.5 µM)
